In ChEMBL document CHEMBL1157764, “Conserved high activity binding peptides are involved in adhesion of two detergent-resistant membrane-associated merozoite proteins to red blood cells during invasion” (J Med Chem, 2010):
Calls of active or inactive are those of the source. The calls are words filed in the database; no cut-off is given here. Where a SMILES comes first, the peptide text is derived from it. [ ]: non-standard residue; d: D form. Ahp(2) = CCCCC[C@H](N)C(=O)O

Key:
Plasmodium falciparum [1] = assay: Antiplasmodial activity against Plasmodium falciparum FCB2 assessed as inhibition of merozoite invasion of human RBCs at 200 uM after 18 hrs using hydroethidine staining by flow cytometry; assay type: functional; settings: FCB2, 18 h
Plasmodium falciparum [2] = assay: Antiplasmodial activity against Plasmodium falciparum FCB2 assessed as inhibition of merozoite invasion of human RBCs at 100 uM after 18 hrs using hydroethidine staining by flow cytometry; assay type: functional; settings: FCB2, 18 h
Homo sapiens [3] = species on record: Homo sapiens; assay: Binding affinity to RBC membrane receptor in 1 mg/mL trypsin pretreated human RBCs relative to untreated RBCs
Homo sapiens [4] = species on record: Homo sapiens; assay: Binding affinity to RBC membrane receptor in 1 mg/mL chymotrypsin pretreated human RBCs relative to untreated RBCs
Homo sapiens [5] = species on record: Homo sapiens; assay: Binding affinity to RBC membrane receptor in 150 uU/mL neuraminidase pretreated human RBCs relative to untreated RBCs
Homo sapiens [6] = species on record: Homo sapiens; assay: Binding affinity to RBC membrane receptor in human RBCs assessed as specific binding activity measured as ratio of specifically bound peptide/added peptide by gamma counter
[7] = Binding affinity to RBC membrane receptor in human RBCs assessed as dissociation constant by gamma counter
Homo sapiens [8] = species on record: Homo sapiens; assay: Binding affinity of radio labeled compound to 85 kDa RBC membrane receptor in human RBCs cross-linked with bis-(sulfosuccinimidyl)suberate by autoradiography using SDS-PAGE
Homo sapiens [9] = species on record: Homo sapiens; assay: Binding affinity of radio labeled compound to 78 kDa RBC membrane receptor in human RBCs cross-linked with bis-(sulfosuccinimidyl)suberate by autoradiography using SDS-PAGE

| Molecule | Activity (Homo sapiens [6]) [%] | other results |
| --- | --- | --- |
| CC[C@H](C)[C@H](NC(=O)[C@H](CCCCN)NC(=O)CNC(=O)CNC(=O)[C@H](Cc1ccc(O)cc1)NC(=O)[C@H](CC(=O)O)NC(=O)[C@H](CO)NC(=O)[C@H](CC(C)C)NC(=O)[C@@H](N)CCCNC(=N)N)C(=O)N[C@@H](CC(C)C)C(=O)N[C@H](C(=O)N[C@@H](CCCCN)C(=O)NCC(=O)N[C@H](C(=O)N[C@@H](CC(N)=O)C(=O)N[C@@H](C)C(=O)N[C@@H](CCC(N)=O)C(=O)N[C@@H](CC(N)=O)C(=O)N[C@H](C(=O)N[C@@H](CC(C)C)C(=O)O)[C@H](C)O)[C@@H](C)O)C(C)C | > 2 | inhibition at 200 µM (Plasmodium falciparum [1]): 9%; inhibition at 100 µM (Plasmodium falciparum [2]): 34%; Activity (Homo sapiens [3]): 11%; Activity (Homo sapiens [4]): 79%; Activity (Homo sapiens [5]): 67%; Kd [7]: 900 nM |
| CC(C)C[C@H](NC(=O)[C@H](CCCCN)NC(=O)[C@H](Cc1ccc(O)cc1)NC(=O)[C@H](CC(C)C)NC(=O)CNC(=O)[C@H](CC(=O)O)NC(=O)[C@H](CO)NC(=O)[C@H](CO)NC(=O)[C@H](Cc1ccc(O)cc1)NC(=O)[C@H](CCCCN)NC(=O)[C@H](CC(C)C)NC(=O)[C@H](Cc1cnc[nH]1)NC(=O)[C@H](CO)NC(=O)[C@H](CO)NC(=O)[C@@H]1CCCN1C(=O)[C@@H](NC(=O)[C@H](CCCCN)NC(=O)[C@H](CS)NC(=O)[C@@H](NC(=O)[C@@H](N)CCCCN)[C@H](C)O)C(C)C)C(=O)O | > 2 | inhibition at 200 µM (Plasmodium falciparum [1]): 13%; inhibition at 100 µM (Plasmodium falciparum [2]): 45%; Activity (Homo sapiens [3]): 55%; Activity (Homo sapiens [4]): 37%; Activity (Homo sapiens [5]): 23%; Kd [7]: 250 nM |
| CC[C@H](C)[C@H](NC(=O)[C@H](CCCNC(=N)N)NC(=O)[C@H](CCC(=O)O)NC(=O)[C@H](Cc1cnc[nH]1)NC(=O)[C@@H](NC(=O)[C@H](CC(C)C)NC(=O)[C@H](Cc1c[nH]c2ccccc12)NC(=O)[C@H](CCCCN)NC(=O)[C@H](CCCCN)NC(=O)[C@H](CCCCN)NC(=O)[C@H](CCCCN)NC(=O)[C@H](CC(N)=O)NC(=O)[C@H](C)NC(=O)[C@H](CC(=O)O)NC(=O)[C@@H](N)C(C)C)[C@@H](C)O)C(=O)N[C@@H](CC(C)C)C(=O)N[C@@H](CCCCN)C(=O)N[C@@H](CCCCN)C(=O)N[C@@H](CC(C)C)C(=O)N[C@@H](CCC(N)=O)C(=O)N[C@@H](Cc1ccc(O)cc1)C(=O)O | > 2 | inhibition at 200 µM (Plasmodium falciparum [1]): 11%; inhibition at 100 µM (Plasmodium falciparum [2]): 37%; Activity (Homo sapiens [8]): Active; Activity (Homo sapiens [9]): Active; Activity (Homo sapiens [3]): 50%; Activity (Homo sapiens [4]): 87%; Activity (Homo sapiens [5]): 25%; Kd [7]: 510 nM |
| CC[C@H](C)[C@H](NC(=O)[C@@H](N)CCC(=O)O)C(=O)N[C@@H](CO)C(=O)N[C@@H](CCC(=O)O)C(=O)N[C@@H](CS)C(=O)N[C@H](C(=O)N[C@@H](CCC(=O)O)C(=O)N[C@@H](CO)C(=O)N[C@@H](CCC(=O)O)C(=O)N[C@@H](CCC(N)=O)C(=O)N[C@@H](CC(N)=O)C(=O)N[C@@H](CCC(=O)O)C(=O)N[C@H](C(=O)N[C@@H](CCCCN)C(=O)N[C@H](C(=O)N[C@@H](CO)C(=O)N[C@H](C(=O)N[C@H](C(=O)N[C@@H](CS)C(=O)N[C@@H](CC(C)C)C(=O)N[C@@H](Cc1ccc(O)cc1)C(=O)O)[C@@H](C)O)[C@@H](C)O)[C@@H](C)O)C(C)C)C(C)C (H-EISECVESEQNEVKTSTTCLY-OH) | > 2 |  |
| CC[C@H](C)[C@H](NC(=O)[C@H](Cc1ccc(O)cc1)NC(=O)[C@H](CCC(=O)O)NC(=O)[C@H](CO)NC(=O)[C@@H](NC(=O)[C@H](CC(=O)O)NC(=O)[C@H](CCCCN)NC(=O)[C@H](CC(C)C)NC(=O)[C@H](CCCCN)NC(=O)[C@@H](NC(=O)[C@H](CCC(=O)O)NC(=O)[C@H](CS)NC(=O)[C@H](Cc1ccccc1)NC(=O)[C@@H]1CCCN1C(=O)[C@H](CO)NC(=O)[C@@H](N)Cc1cnc[nH]1)[C@@H](C)CC)[C@@H](C)CC)C(=O)N[C@@H](CCCNC(=N)N)C(=O)N[C@@H](CCCCN)C(=O)N[C@@H](CCCCN)C(=O)N[C@@H](CS)C(=O)O (H-HSPFCEIKLKDISEYIRKKC-OH) | > 2 |  |
| CC[C@H](C)[C@H](N)C(=O)N[C@@H](Cc1cnc[nH]1)C(=O)N[C@@H](CCCCN)C(=O)N[C@@H](CCCNC(=N)N)C(=O)N[C@@H](CS)C(=O)N[C@@H](CC(N)=O)C(=O)N[C@@H](CC(=O)O)C(=O)N[C@@H](CC(=O)O)C(=O)N[C@H](C(=O)N[C@@H](CCC(=O)O)C(=O)N[C@@H](CCCCN)C(=O)N[C@@H](CCCCN)C(=O)N[C@@H](CS)C(=O)N[C@@H](CC(N)=O)C(=O)NCC(=O)N[C@@H](CC(N)=O)C(=O)N[C@@H](CC(N)=O)C(=O)N[C@@H](CCCCN)C(=O)N[C@@H](CS)C(=O)N[C@H](C(=O)N[C@@H](Cc1ccc(O)cc1)C(=O)O)[C@@H](C)CC)[C@@H](C)CC (H-IHKRCNDDIEKKCNGNNKCIY-OH) | > 2 |  |
| CC[C@H](C)[C@H](NC(=O)[C@H](CCC(=O)O)NC(=O)[C@H](CC(N)=O)NC(=O)[C@H](CC(N)=O)NC(=O)CNC(=O)[C@H](CC(N)=O)NC(=O)[C@H](CC(C)C)NC(=O)[C@H](CS)NC(=O)[C@H](CCC(N)=O)NC(=O)[C@@H](NC(=O)[C@H](CCC(=O)O)NC(=O)[C@H](CS)NC(=O)[C@H](Cc1cnc[nH]1)NC(=O)[C@H](CC(C)C)NC(=O)[C@@H](NC(=O)[C@H](Cc1ccc(O)cc1)NC(=O)[C@H](CC(C)C)NC(=O)[C@H](CC(N)=O)NC(=O)CNC(=O)[C@@H](N)CCC(N)=O)C(C)C)C(C)C)C(=O)O (H-QGNLYVLHCEVQCLNGNNEI-OH) | > 2 |  |
| CCCCC[C@H](NC(=O)[C@H](Cc1ccc(O)cc1)NC(=O)[C@@H](NC(=O)[C@H](CCCNC(=N)N)NC(=O)[C@H](CCCNC(=N)N)NC(=O)[C@H](CCC(N)=O)NC(=O)[C@@H]1CCCN1C(=O)[C@@H](NC(=O)[C@@H](NC(=O)[C@H](Cc1ccccc1)NC(=O)[C@@H](NC(=O)[C@H](CC(=O)O)NC(=O)[C@H](CC(N)=O)NC(=O)[C@H](CCC(=O)O)NC(=O)CNC(=O)[C@H](Cc1ccccc1)NC(=O)[C@H](CC(C)C)NC(=O)[C@@H](N)Cc1ccc(O)cc1)[C@@H](C)CC)C(C)C)C(C)C)[C@@H](C)CC)C(=O)N[C@H](C(=O)N[C@@H](CCC(=O)O)C(=O)O)[C@@H](C)O (H-YLFGENDIFVVPQRRIY[Ahp(2)]TE-OH) | > 2 |  |
| H-ASLKETMNKIDTIEKKIEEFY-OH | > 2 | inhibition at 200 µM (Plasmodium falciparum [1]): 8%; inhibition at 100 µM (Plasmodium falciparum [2]): 40%; Activity (Homo sapiens [8]): Active; Activity (Homo sapiens [9]): Active; Activity (Homo sapiens [3]): 87%; Activity (Homo sapiens [4]): 33%; Activity (Homo sapiens [5]): 12%; Kd [7]: 1200 nM |
| H-DEKHAENEENVEQIETDSNVY-OH | > 2 |  |
| H-DEVFGSQSSNFNIFDSNNTDY-OH | > 2 |  |
| H-DGLNCFDNVYIKNKTLVKIE-OH | > 2 |  |
| H-DNNKECLIDPLDVQKNLLNEY-OH | > 2 | inhibition at 200 µM (Plasmodium falciparum [1]): 4%; inhibition at 100 µM (Plasmodium falciparum [2]): 36%; Activity (Homo sapiens [8]): Active; Activity (Homo sapiens [9]): Active; Activity (Homo sapiens [3]): 105%; Activity (Homo sapiens [4]): 59%; Activity (Homo sapiens [5]): 13%; Kd [7]: 800 nM |
| H-EDGEKENKHKSSETTNETVTY-OH | > 2 |  |
| H-EEIGDESTDSSSMEIQDSTSY-OH | > 2 |  |
| H-EEQENEDSTDAEAIDKEEVEY-OH | > 2 |  |
| H-EKKDVKVSGNNNIAVVYSIF-OH | > 2 |  |
| H-FEVRLPKDIKVTENCFRYSF-OH | > 2 |  |
| H-FVLAPDEMVYLFYHGNEKKN-OH | > 2 | inhibition at 200 µM (Plasmodium falciparum [1]): 9%; inhibition at 100 µM (Plasmodium falciparum [2]): 49%; Activity (Homo sapiens [3]): 31%; Activity (Homo sapiens [4]): 116%; Activity (Homo sapiens [5]): 5%; Kd [7]: 850 nM |
| H-GTAMESLLYLNNNNVKKLID-OH | > 2 |  |
| H-ILYLEKNNLFNTQASCIKSY-OH | > 2 |  |
| H-ISLLLNKKYDSFEIKDVLED-OH | > 2 |  |
| H-ITIEELFKSAIKTEEMKDNKY-OH | < 2 |  |
| H-KETQEKSDQEPSQNIQEDNSY-OH | > 2 |  |
| H-KYILVCENHSQNYINVVDQE-OH | > 2 |  |
| H-LFETFDPQYLNTEFNGVSHY-OH | > 2 |  |
| H-LGYDNCTIEVNKTVNGIDWN-OH | > 2 |  |
| H-LNEDLVLLYNDFPFDNGMIS-OH | > 2 |  |

| Molecule | Activity (Homo sapiens [6]) [%] | other results |
| --- | --- | --- |
| H-MAVYNALYEKAQSYNLQKLF-OH | > 2 |  |
| H-MFAVNLKICIFLSLVSFLLQY-OH | > 2 |  |
| H-NDSNDFLKKYAIMGNSFDDG-OH | > 2 |  |
| H-NEDNKDLEHGSSNDVNNNTDY-OH | > 2 |  |
| H-NEQDENVKGMSSSQEMNSNNY-OH | > 2 |  |
| H-NKTDNGSSFFFAMSNALLVIY-OH | > 2 |  |
| H-NNDDQDEQGNDGDVTSSMNKY-OH | > 2 |  |
| H-NNEKVVPLSNEPQEIIQPPIY-OH | > 2 |  |
| H-NYKSTYCVLSNNYRIVVEFD-OH | > 2 |  |
| H-NYYISPFYDENSIKQEINKK-OH | > 2 |  |
| H-QEKLNTTDPSKAYIYGANII-OH | > 2 |  |
| H-QNNEQEQPKQDDQLLNNNNDY-OH | > 2 |  |
| H-RYNEMKRDANPDVYYIYLMD-OH | > 2 |  |
| H-SDIFFKYNPSENIMDHQEMV-OH | > 2 |  |
| H-SEEANDENKDNMQTTTDEGTY-OH | > 2 |  |
| H-SKINKELAHRTALFNKLADNY-OH | > 2 |  |
| H-SPNYELSLNSLSDSQNVDIF-OH | > 2 |  |
| H-TEEKGKDEQKKDEQKEQDEEY-OH | > 2 |  |
| H-TLDIEKIEDINLEEVKMSLLY-OH | > 2 |  |
| H-TLVNNKENKEFVLKEKSSLTY-OH | > 2 |  |
| H-TNTTPAVYSGSLLSMNNDFE-OH | > 2 |  |
| H-TSEEKMILIFKCDNKFYITK-OH | > 2 |  |
| H-TYHLAIVKNEDKLQLAFTYD-OH | > 2 |  |
| H-VHFMAGGQKYKYEGIDLTDS-OH | > 2 |  |
| H-VSKFDNNKTIGFVCPVKSSY-OH | > 2 |  |
| H-YGKEFKWSDPKVIDVSNVIG-OH | > 2 |  |
| H-YMREIRLLGKCMLSFDEGNN-OH | > 2 |  |
